According to patent publication US20230295149A1, “MONOBACTAM COMPOUNDS, THEIR PREPARATION AND USE AS ANTIBACTERIAL AGENTS” (NINGXIA ACADEMY OF AGRICULTURE AND FORESTRY SCIENCES, priority 2020, published 2023):

Key:
Assay in all cases: MIC determination, broth microdilution
Format in all cases: cell-based
[1] = tested on: K. pneumoniae clinical isolate; conditions: Klebsiella pneumoniae, 37° C., 18-24 hours, read-out: Strain 3 MIC
Experimental: (§1) Compounds of this invention were tested for antimicrobial activity by determining minimum inhibitory concentrations (MICs, in μg/mL) using the broth microdilution method according to the guidelines of the Clinical Laboratories and Standards Institute (“Methods for Dilution Antimicrobial Susceptibility Tests for Bacteria that Grow Aerobically”, Approved standard, 7th ed., Clinical and Laboratory Standards Institute (CLSI) Document M7-A8, Wayne, Pa., USA, 2009.). Test compounds were dissolved in DMSO. The compounds were then diluted in microbial growth medium (Mueller Hinton Broth II, cation adjusted) resulting in a final concentration range of 0.063-64 μg/mL in serial two-fold dilution. In all cases the final DMSO concentration was less than 0.5%. Bacteria were added to 96-well microtitre plates containing the two-fold dilutions of the compounds; the final cell density was approximately 5×10^5 colony forming units/mL (CFU/mL). Plates were incubated at 37° C. for 18-24 hours and read visually. The MIC, i.e. the lowest concentration of the test compound that inhibited visible growth of the bacteria, was recorded. The same assay conditions were used when the compounds of this invention were tested in combination with—lactamase inhibitors. While the compounds of this invention were serially diluted as described above, a constant concentration of the inhibitor of 4 mg/L was used. Bacterial strains that were used to evaluate the antimicrobial activity using the MIC determination included but were not limited to E. coli clinical isolate, E. coli 8739, K. pneumoniae clinical isolate, K. pneumoniae 700603, E. cloacae clinical isolate, E. cloacae 700323, A. baumannii clinical isolate, A. baumannii 19606, P. aeruginosa clinical isolate, P. aeruginosa 9027.

K. pneumoniae 700603 = conditions: Klebsiella pneumoniae, 37° C., 18-24 hours, read-out: Strain 4 MIC
Experimental: as §1

P. aeruginosa 9027 = conditions: Pseudomonas aeruginosa, 37° C., 18-24 hours, read-out: Strain 10 MIC
Experimental: as §1

E. coli 8739 = conditions: Escherichia coli, 37° C., 18-24 hours, read-out: Strain 2 MIC
Experimental: as §1

[2] = tested on: A. baumannii clinical isolate; conditions: Acinetobacter baumannii, 37° C., 18-24 hours, read-out: Strain 7 MIC
Experimental: as §1

[3] = tested on: P. aeruginosa clinical isolate; conditions: Pseudomonas aeruginosa, 37° C., 18-24 hours, read-out: Strain 9 MIC
Experimental: as §1

[4] = tested on: E. cloacae clinical isolate; conditions: Enterobacter cloacae, 37° C., 18-24 hours, read-out: Strain5 MIC
Experimental: as §1

E. cloacae 700323 = conditions: Enterobacter cloacae, 37° C., 18-24 hours, read-out: Strain 6 MIC
Experimental: as §1

A. baumannii 19606 = conditions: Acinetobacter baumannii, 37° C., 18-24 hours, read-out: Strain8 MIC
Experimental: as §1

E. coli clinical isolate = conditions: Escherichia coli, 37° C., 18-24 hours, read-out: Strain 1 MIC
Experimental: as §1

Row | MIC [1] [µg/mL] | MIC (K. pneumoniae 700603) [µg/mL] | MIC (P. aeruginosa 9027) [µg/mL] | MIC (E. coli 8739) [µg/mL] | MIC [2] [µg/mL] | MIC [3] [µg/mL] | MIC [4] [µg/mL] | MIC (E. cloacae 700323) [µg/mL] | MIC (A. baumannii 19606) [µg/mL] | MIC (E. coli clinical isolate) [µg/mL] | SMILES
1 | 4 | 8 | 2 | 1 | 16 | 2 | 8 | 8 | 8 | 8 | CC1(C)[C@H](NC(=O)/C(=N\O[C@@H](COc2ccc(C(=N)N[C@@H]3CCNC3)cc2)C(=O)O)c2nsc(N)n2)C(=O)N1OS(=O)(=O)O [Example 12, (S)-2-((((Z)-1-(5-Amino-1,2,4-thiadiazol-3-yl)-2-(((S)-2,2-dimethyl-4-oxo-1-(sulfooxy)azetidin-3-yl)amino)-2-oxoethylidene)amino)oxy)-3-(4-(N—((R)-pyrrolidin-3-yl)carbamimidoyl)phenoxy)propanoic acid]
2 | 1 | 4 | 0.5 | 0.25 | 8 | 1 | 2 | 4 | 4 | 0.25 | CC1(C)[C@H](NC(=O)/C(=N\O[C@@H](COc2ccc(C(=N)N[C@H]3CCNC3)cc2)C(=O)O)c2nc(N)sc2Cl)C(=O)N1OS(=O)(=O)O [Example 5, (S)-2-((((Z)-1-(2-Amino-5-chlorothiazol-4-yl)-2-(((S)-2,2-dimethyl-4-oxo-1-(sulfooxy)azetidin-3-yl)amino)-2-oxoethylidene)amino)oxy)-3-(4-(N—((S)-pyrrolidin-3-yl)carbamimidoyl)phenoxy)propanoic acid]
3 | 64 | 64 | 16 | 16 | > 64 | > 64 | > 64 | > 64 | 32 | > 64 | C[C@H]1[C@H](NC(=O)/C(=N\OC(C)(C)C(=O)O)c2csc(N)n2)C(=O)N1S(=O)(=O)O [AZT, Aztreonam, reference compound]
4 | 4 | 8 | 2 | 1 | 16 | 2 | 8 | 8 | 8 | 8 | CC1(C)[C@H](NC(=O)/C(=N\O[C@@H](COc2ccc(C(=N)NC3CCNCC3)cc2)C(=O)O)c2nc(N)sc2Cl)C(=O)N1OS(=O)(=O)O [Example 1, (S)-2-((((Z)-1-(2-Amino-5-chlorothiazol-4-yl)-2-(((S)-2,2-dimethyl-4-oxo-1-(sulfooxy)azetidin-3-yl)amino)-2-oxoethylidene)amino)oxy)-3-(4-(N-(piperidin-4-yl)carbamimidoyl)phenoxy)propanoic acid]
5 | 32 | 64 | 2 | 0.5 | 16 | 4 | 32 | 64 | 32 | 0.5 | CC1(C)[C@H](NC(=O)/C(=N\O[C@@H](COc2ccc(C(=N)N[C@H]3CCCNC3)cc2)C(=O)O)c2nc(N)sc2Cl)C(=O)N1OS(=O)(=O)O [Example 11, (S)-2-((((Z)-1-(2-Amino-5-chlorothiazol-4-yl)-2-(((S)-2,2-dimethyl-4-oxo-1-(sulfooxy)azetidin-3-yl)amino)-2-oxoethylidene)amino)oxy)-3-(4-(N—((S)-piperidin-3-yl)carbamimidoyl)phenoxy)propanoic acid]
6 | 1 | 1 | 2 | 0.25 | 8 | 2 | 2 | 4 | 8 | 1 | CC1(C)[C@H](NC(=O)/C(=N\O[C@@H](COc2ccc(C(=N)N[C@@H]3CCNC3)cc2)C(=O)O)c2nc(N)sc2Cl)C(=O)N1OS(=O)(=O)O [Example 10, (S)-2-((((Z)-1-(2-Amino-5-chlorothiazol-4-yl)-2-(((S)-2,2-dimethyl-4-oxo-1-(sulfooxy)azetidin-3-yl)amino)-2-oxoethylidene)amino)oxy)-3-(4-(N—((R)-pyrrolidin-3-yl)carbamimidoyl)phenoxy)propanoic acid]
7 | 8 | 64 | 1 | 0.25 | 8 | 2 | 16 | 64 | 16 | 0.25 | CC1(C)[C@H](NC(=O)/C(=N\O[C@@H](COc2ccc(C(=N)N[C@@H]3CCCNC3)cc2)C(=O)O)c2nsc(N)n2)C(=O)N1OS(=O)(=O)O [Example 4, (S)-2-((((Z)-1-(5-Amino-1,2,4-thiadiazol-3-yl)-2-(((S)-2,2-dimethyl-4-oxo-1-(sulfooxy)azetidin-3-yl)amino)-2-oxoethylidene)amino)oxy)-3-(4-(N—((R)-piperidin-3-yl)carbamimidoyl)phenoxy)propanoic acid]
8 | 2 | 32 | 0.5 | 0.25 | 4 | 0.5 | 8 | 16 | 8 | 0.125 | CC1(C)[C@H](NC(=O)/C(=N\O[C@@H](COc2ccc(C(=N)NC3CNC3)cc2)C(=O)O)c2nsc(N)n2)C(=O)N1OS(=O)(=O)O [Example 7, (S)-2-((((Z)-1-(5-Amino-1,2,4-thiadiazol-3-yl)-2-(((S)-2,2-dimethyl-4-oxo-1-(sulfooxy)azetidin-3-yl)amino)-2-oxoethylidene)amino)oxy)-3-(4-(N-(azetidin-3-yl)carbamimidoyl)phenoxy)propanoic acid]
9 | 32 | 64 | 1 | 0.5 | 32 | 16 | 64 | 32 | 16 | 1 | C[C@H]1[C@H](NC(=O)/C(=N\O[C@@H](COc2ccc(C(=N)N[C@H]3CCCNC3)cc2)C(=O)O)c2nc(N)sc2Cl)C(=O)N1S(=O)(=O)O [Example 9, (S)-2-((((Z)-1-(2-Amino-5-chlorothiazol-4-yl)-2-(((2S,3S)-2-methyl-4-oxo-1-sulfoazetidin-3-yl)amino)-2-oxoethylidene)amino)oxy)-3-(4-(N—((S)-piperidin-3-yl)carbamimidoyl)phenoxy)propanoic acid]
10 | 1 | 64 | 0.5 | 0.125 | 4 | 2 | 4 | 32 | 16 | 0.5 | CC1(C)[C@H](NC(=O)/C(=N\O[C@@H](COc2ccc(C(=N)N[C@H]3CCNC3)cc2)C(=O)O)c2nsc(N)n2)C(=O)N1OS(=O)(=O)O [Example 6, (S)-2-((((Z)-1-(5-Amino-1,2,4-thiadiazol-3-yl)-2-(((S)-2,2-dimethyl-4-oxo-1-(sulfooxy)azetidin-3-yl)amino)-2-oxoethylidene)amino)oxy)-3-(4-(N—((S)-pyrrolidin-3-yl)carbamimidoyl)phenoxy)propanoic acid]
11 | 8 | 8 | 1 | 0.25 | 8 | 1 | 8 | 8 | 4 | 0.5 | CC1(C)[C@H](NC(=O)/C(=N\O[C@@H](COc2ccc(C(=N)NC3CNC3)cc2)C(=O)O)c2nc(N)sc2Cl)C(=O)N1OS(=O)(=O)O [Example 8, (S)-2-((((Z)-1-(2-Amino-5-chlorothiazol-4-yl)-2-(((S)-2,2-dimethyl-4-oxo-1-(sulfooxy)azetidin-3-yl)amino)-2-oxoethylidene)amino)oxy)-3-(4-(N-(azetidin-3-yl)carbamimidoyl)phenoxy)propanoic acid]
